Read-outs that look alike come from different tables or passages of the source.
Assay: Permeability and efflux ratio in Caco-2 cells
Assay type: in vitro ADME
Details: human; for recovery at 120 min, 10 µM: Caco-2, Caco-2, 10 µM
Method: Human colon carcinoma (Caco-2) cells, which were obtained from Military Medical Research Institute, were maintained in Dulbecco’s modified Eagle’s medium. Caco-2 cells were seeded onto […] (PET) in 96-well Falcon insert systems at 2 × 10^5 cells/cm^2 for 21–28 days for confluent cell monolayer formation. […] Test compounds were diluted with the transport buffer (HBSS without BSA) from a 10 mM stock solution to a concentration of 10 µM and applied to the apical or basolateral side of the cell monolayer. Permeation of the test compounds in the direction from A to B or from B to A was determined in duplicate over a 120-min incubation at 37 °C and 5% CO2 with a relative humidity of 95%. In addition, the efflux ratio of each compound was also determined. Test and reference compounds were quantified by LC-MS/MS analysis based on the peak area ratio of analyte/IS. The apparent permeability coefficient Papp (cm/s) was calculated using the following equation:Papp = (dCr/dt) × Vr/(A × C0) where dCr/dt is the cumulative concentration of the compound in the receiver chamber as a function of time (S); Vr is the solution volume in the receiver chamber (0.1 mL on the apical side, 0.25 mL on the basolateral side); A is the surface area for the transport, i.e., 0.0804 cm^2 for the area of the monolayer; C0 is the initial concentration in the donor chamber. […] Cd and Cr are the final concentrations of transport compound in donor and receiver chambers, respectively. Cc is the compound concentration in the cell lysate solution. Vc is the volume of insert well (0.1 mL in this assay).

[1] = Caco-2, 10 µM, 120-min incubation, 37 °C

| recovery at 120 min, 10 µM (read-out: Mean Recovery % A to B) | Papp A→B at 120 min, 10 µM [1] | recovery at 120 min, 10 µM (read-out: Mean Recovery % B to A) | Papp B→A at 120 min, 10 µM [1] | Structure (SMILES) |
| --- | --- | --- | --- | --- |
| 81% | 29.4 ×10⁻⁶ cm/s | – | – | CC(C)NCC(O)COc1cccc2ccccc12 (centres unmarked) [Propranolol] |
| – | 0.65 ×10⁻⁶ cm/s | 95.3% | 14.6 ×10⁻⁶ cm/s | C[C@H]1O[C@@H](O[C@H]2[C@@H](O)C[C@H](O[C@H]3[C@@H](O)C[C@H](O[C@H]4CC[C@@]5(C)[C@H](CC[C@@H]6[C@@H]5C[C@@H](O)[C@]5(C)[C@@H](C7=CC(=O)OC7)CC[C@]65O)C4)O[C@@H]3C)O[C@@H]2C)C[C@H](O)[C@@H]1O [Digoxin] |

Source: article PMC10931676 (International Journal of Molecular Sciences, 2024)
